From US11980188B2, “Spiro cyclohexanedione derivates as herbicides” (SYNGENTA PARTICIPATIONS AG, priority 2018, dated 2024)

Columns and labels:
Test in all cases: Glasshouse herbicide test, pre- and post-emergence, percentage damage
Type in all cases: in vivo
[1] = system: Alopecurus myosuroides (ALOMY); conditions: 250 g/h, evaluated after 13 days, percentage damage on five point scale; for ALOMY POST: post-emergence; for ALOMY PRE: pre-emergence
Method: (§1) Seeds of a variety of test species are sown in standard soil in pots (Lolium perenne (LOLPE), Setaria faberi (SETFA), Alopecurus myosuroides (ALOMY), Echinochloa crus-galli (ECHCG), Avena fatua (AVEFA)). After cultivation for one day (pre-emergence) or after 8 days cultivation (post-emergence) under controlled conditions in a glasshouse (at 24/16° C., day/night; 14 hours light; 65% humidity), the plants are sprayed with an aqueous spray solution derived from the formulation of the technical active ingredient in acetone/water (50:50) solution containing 0.5% Tween 20 (polyoxyethelyene sorbitan monolaurate, CAS RN 9005-64-5). Compounds are applied at […]. The test plants are then grown in a glasshouse under controlled conditions in a glasshouse (at 24/16° C., day/night; 14 hours light; 65% humidity) and watered twice daily. After 13 days for pre and post-emergence, the test is evaluated for the percentage damage caused to the plant. The biological activities are shown in the following table on a five point scale (5=80-100%; 4=60-79%; 3=40-59%; 2=20-39%; 1=0-19%).

[2] = system: Setaria faberi (SETFA); conditions: 250 g/h, evaluated after 13 days, percentage damage on five point scale; for SETFA POST: post-emergence; for SETFA PRE: pre-emergence
Method: as §1

[3] = system: Lolium perenne (LOLPE); conditions: 250 g/h, evaluated after 13 days, percentage damage on five point scale; for LOLPE POST: post-emergence; for LOLPE PRE: pre-emergence
Method: as §1

[4] = system: Echinochloa crus-galli (ECHCG); conditions: 250 g/h, evaluated after 13 days, percentage damage on five point scale; for ECHCG POST: post-emergence; for ECHCG PRE: pre-emergence
Method: as §1

[5] = system: Avena fatua (AVEFA); conditions: 250 g/h, evaluated after 13 days, percentage damage on five point scale; for AVEFA POST: post-emergence; for AVEFA PRE: pre-emergence
Method: as §1

Structure (SMILES) | ALOMY POST [1] | ALOMY PRE [1] | SETFA POST [2] | SETFA PRE [2] | LOLPE POST [3] | LOLPE PRE [3] | ECHCG POST [4] | ECHCG PRE [4] | AVEFA POST [5] | AVEFA PRE [5]
CC(=O)N1CCC2(CC1)CC(=O)C(c1c(C)cc(-c3ncc(C#N)cn3)cc1C)C(=O)C2 [Compound A52] | 5 (5=80-100%) | 5 (5=80-100%) | 5 (5=80-100%) | 5 (5=80-100%) | 5 (5=80-100%) | 5 (5=80-100%) | 5 (5=80-100%) | 5 (5=80-100%) | 5 (5=80-100%) | 5 (5=80-100%)
CC(=O)N1CCC2(CC1)CC(=O)C(c1c(C)cc(-n3cc(Cl)cn3)cc1C)C(=O)C2 [Compound A19] | 5 (5=80-100%) | 2 (2=20-39%) | 5 (5=80-100%) | 3 (3=40-59%) | 5 (5=80-100%) | 4 (4=60-79%) | 4 (4=60-79%) | 1 (1=0-19%) | 5 (5=80-100%) | 5 (5=80-100%)
CCS(=O)(=O)N1CCC2(CC1)CC(=O)C(c1c(C)cc(-c3ccc(C#N)cn3)cc1C)C(=O)C2 [Compound A22] | 5 (5=80-100%) | 5 (5=80-100%) | 5 (5=80-100%) | 5 (5=80-100%) | 5 (5=80-100%) | 5 (5=80-100%) |  | 5 (5=80-100%) | 5 (5=80-100%) | 5 (5=80-100%)
Cc1cc(-c2ccc(F)cc2)cc(C)c1C1C(=O)CC2(CCN(C(=O)c3ccccc3)CC2)CC1=O [Compound A54] |  | 5 (5=80-100%) | 5 (5=80-100%) | 5 (5=80-100%) | 5 (5=80-100%) | 5 (5=80-100%) | 5 (5=80-100%) | 5 (5=80-100%) | 5 (5=80-100%) | 5 (5=80-100%)
COCC(=O)N1CCC2(CC1)CC(=O)C(c1c(C)cc(-c3ncc(F)cn3)cc1C)C(=O)C2 [Compound A35] | 5 (5=80-100%) | 5 (5=80-100%) | 5 (5=80-100%) | 5 (5=80-100%) | 5 (5=80-100%) | 5 (5=80-100%) | 5 (5=80-100%) | 5 (5=80-100%) | 5 (5=80-100%) | 5 (5=80-100%)
Cc1cc(-c2ccc(C#N)cn2)cc(C)c1C1C(=O)CC2(CCN(C(=O)NC(=O)C(C)(C)C)CC2)CC1=O [Compound A27] | 5 (5=80-100%) | 4 (4=60-79%) | 5 (5=80-100%) | 5 (5=80-100%) | 5 (5=80-100%) | 4 (4=60-79%) |  | 5 (5=80-100%) | 1 (1=0-19%) | 2 (2=20-39%)
CC(=O)N1CCC2(CC1)CC(=O)C(c1c(C)cc(-c3ncc(Cl)cn3)cc1C)C(=O)C2 [Compound A51] | 5 (5=80-100%) | 5 (5=80-100%) | 5 (5=80-100%) | 5 (5=80-100%) | 5 (5=80-100%) | 5 (5=80-100%) | 5 (5=80-100%) | 5 (5=80-100%) | 5 (5=80-100%) | 5 (5=80-100%)
CC(=O)N1CCC2(CC1)CC(=O)C(c1c(C)cc(-c3ncc(Cl)cc3F)cc1C)C(=O)C2 [Compound A50] | 5 (5=80-100%) | 5 (5=80-100%) | 5 (5=80-100%) | 5 (5=80-100%) | 5 (5=80-100%) | 5 (5=80-100%) | 5 (5=80-100%) | 5 (5=80-100%) | 5 (5=80-100%) | 5 (5=80-100%)
Cc1cc(-c2ncc(F)cn2)cc(C)c1C1C(=O)CC2(CCN(C(=O)NC(=O)C(C)(C)C)CC2)CC1=O [Compound A37] | 5 (5=80-100%) | 5 (5=80-100%) | 5 (5=80-100%) | 5 (5=80-100%) | 5 (5=80-100%) | 5 (5=80-100%) |  | 5 (5=80-100%) | 5 (5=80-100%) | 5 (5=80-100%)
CON1CCC2(CC1)CC(=O)C(c1c(C)cc(-c3ncc(Cl)cn3)cc1C)C(=O)C2 [Compound A1] | 5 (5=80-100%) | 5 (5=80-100%) | 5 (5=80-100%) | 5 (5=80-100%) | 5 (5=80-100%) | 5 (5=80-100%) | 5 (5=80-100%) | 5 (5=80-100%) | 5 (5=80-100%) | 5 (5=80-100%)
CC(=O)N1CCC2(CC1)CC(=O)C(c1c(C)cc(-c3ncc(F)cc3F)cc1C)C(=O)C2 [Compound A48] | 5 (5=80-100%) | 5 (5=80-100%) | 5 (5=80-100%) | 5 (5=80-100%) | 5 (5=80-100%) | 5 (5=80-100%) | 5 (5=80-100%) | 5 (5=80-100%) | 5 (5=80-100%) | 5 (5=80-100%)
CC(=O)N1CCC2(CC1)CC(=O)C(c1c(C)cc(-c3ccc(C#N)cn3)cc1C)C(=O)C2 [Compound A14] | 5 (5=80-100%) | 5 (5=80-100%) | 5 (5=80-100%) | 5 (5=80-100%) | 5 (5=80-100%) | 5 (5=80-100%) |  | 5 (5=80-100%) | 5 (5=80-100%) | 5 (5=80-100%)
Cc1cc(-c2ncc(F)cn2)cc(C)c1C1C(=O)CC2(CCN(C(=O)c3ccccc3)CC2)CC1=O [Compound A33] | 5 (5=80-100%) | 5 (5=80-100%) | 5 (5=80-100%) | 5 (5=80-100%) | 5 (5=80-100%) | 5 (5=80-100%) | 5 (5=80-100%) | 5 (5=80-100%) | 5 (5=80-100%) | 5 (5=80-100%)
COc1cc(-c2ccc(F)cc2)cc(OC)c1C1C(=O)CC2(CCN(C(C)=O)CC2)CC1=O [Compound A20] | 5 (5=80-100%) | 5 (5=80-100%) | 5 (5=80-100%) | 5 (5=80-100%) | 5 (5=80-100%) | 5 (5=80-100%) | 5 (5=80-100%) | 5 (5=80-100%) | 5 (5=80-100%) | 5 (5=80-100%)
Cc1cc(-c2ncc(F)cn2)cc(C)c1C1C(=O)CC2(CCN(C(=O)C3CC3)CC2)CC1=O [Compound A38] | 5 (5=80-100%) | 5 (5=80-100%) | 5 (5=80-100%) | 5 (5=80-100%) | 5 (5=80-100%) | 5 (5=80-100%) | 5 (5=80-100%) | 5 (5=80-100%) | 5 (5=80-100%) | 5 (5=80-100%)
Cc1cc(-c2ccc(C#N)cn2)cc(C)c1C1C(=O)CC2(CCN(C(=O)c3ccccc3)CC2)CC1=O [Compound A23] | 5 (5=80-100%) | 5 (5=80-100%) | 5 (5=80-100%) | 5 (5=80-100%) | 5 (5=80-100%) | 5 (5=80-100%) | 5 (5=80-100%) | 5 (5=80-100%) | 5 (5=80-100%) | 5 (5=80-100%)
CC(=O)N1CCC2(CC1)CC(=O)C(c1c(C)cc(C)cc1C)C(=O)C2 [Compound A42] | 5 (5=80-100%) | 5 (5=80-100%) | 5 (5=80-100%) | 5 (5=80-100%) | 5 (5=80-100%) | 5 (5=80-100%) | 1 (1=0-19%) | 3 (3=40-59%) | 5 (5=80-100%) | 5 (5=80-100%)
CC(=O)N1CCC2(CC1)CC(=O)C(c1c(C)cc(-c3ccc(F)cc3)cc1C)C(=O)C2 [Compound A12] | 5 (5=80-100%) | 5 (5=80-100%) | 5 (5=80-100%) | 5 (5=80-100%) | 5 (5=80-100%) | 5 (5=80-100%) | 5 (5=80-100%) | 5 (5=80-100%) | 5 (5=80-100%) | 4 (4=60-79%)
Cc1cc(-c2ccc(C#N)cn2)cc(C)c1C1C(=O)CC2(CCN(C(=O)C(C)(C)C)CC2)CC1=O [Compound A30] | 5 (5=80-100%) | 5 (5=80-100%) | 5 (5=80-100%) | 5 (5=80-100%) | 5 (5=80-100%) | 5 (5=80-100%) | 5 (5=80-100%) | 5 (5=80-100%) | 5 (5=80-100%) | 3 (3=40-59%)
